Assays:
[1] = tested on: OGT in CHO cells; assay: Immunoblotting of global O-GlcNAcylation (RL2) in CHO cells; type: cell-based, Chinese hamster
Protocol: (§1) In vivo inhibition of glycosylation: For all immunoblotting experiments, CHO-K1 (CHO) cells were grown in F12-K media supplemented with 10% FBS and antibiotics at 37° C. in a 5% CO2 incubator. Cells were treated by adding indicated inhibitor in DMSO vehicle (0.5% final vehicle concentration) upon reaching 70% confluence. After indicated treatment length, cells were harvested by aspirating growth media and washing with ice cold 1× PBS. Cells were subsequently lysed in boiling 1% SDS/20 mM HEPES 7.9. After cooling to room temperature, 1 mM PMSF, 10 μM PUGNAC, 10 μM TMG and 1× Complete protease inhibitor cocktail were added to the solution. The mixture was sonicated and then subjected to a 5 minute incubation at 95° C. The samples were centrifuged for 15 minutes at 20,000×g and the supernatant was collected and the total protein was measured by BCA assay (BIO-RAD).
(§2) The sample was separated by SDS-PAGE (Bio-Rad 4-15%, Cat: 345-0028), transferred to a nitrocellulose membrane (iBlot, Invitrogen) and probed with the indicated antibody. Tyipcally, membranes were blocked with 4% BSA in 1× TBS+0.04% tween-20 for 1 hour before incubating with antibody (typically diluted 1:1000 in 4% BSA inlx TBS+0.04% tween-20) overnight at 4° C. Membranes were then washed three times with 1× TBS+0.04% tween-20 and incubated with secondary antibody (typically diluted 1:5000 in 4% BSA in 1× TBS+0.04% tween-20) for 1 hour at room temperature. Lastly, membranes were washed 3× with 1× TBS+0.04% tween-20 and imaged with ECL. D283-Med cells were treated as above but grown in F12-K media supplemented with 10% FBS and antibiotics. HEK, HeLa and LNCaP cells were treated as above but grown in RPMI media supplemented with 10% FBS and antibiotics.

[2] = tested on: cell surface glycans of CHO cells; assay: Lectin blots of cell surface glycans of CHO cells; type: cell-based, Chinese hamster; conditions: 50 μM, 24 hours
Protocol: Lectin blots were performed with the CHO-K1 cell lysate as prepared above. […] The biotin label on the lectins was visualized with incubation with Streptavidin-HRP (Pierce) followed by ECL detection and imaging.

[3] = tested on: OGT in CHO cells; assay: Markers of OGT inhibition in CHO cells (Nup62 mass shift, OGA levels, H2B-S112 O-GlcNAc); type: cell-based, Chinese hamster
Protocol: as §1, §2

[4] = tested on: CHO, HEK-293, HeLa and D283-Med cells; assay: Immunoblotting of global O-GlcNAcylation in various mammalian cell types; type: cell-based; conditions: 50 μM, 24 hours
Protocol: as §1
The sample was separated by SDS-PAGE (Bio-Rad 4-15%, Cat: 345-0028), transferred to a nitrocellulose membrane (iBlot, Invitrogen) and probed with the indicated antibody. Tyipcally, membranes were blocked with 4% BSA in 1× TBS+0.04% tween-20 for 1 hour before incubating with antibody (typically diluted 1:1000 in 4% BSA inlx TBS+0.04% tween-20) overnight at 4° C. […]

## CC(=O)N[C@@H]1[C@@H](OC(C)=O)[C@H](OC(C)=O)[C@@H](COC(C)=O)S[C@@H]1OC(C)=O [Ac4-5SGlcNAc, reference compound]
[1]; 50 μM, 8-hour time course
  Onset of reduction of global O-GlcNAcylation: only at four hours
[1]; 24 hours, up to 50 μM
  Effect on global O-GlcNAcylation: reduced global O-GlcNAcylation to a greater extent than OSMI-1
[2]
  Changes in bands detected by ConA, PHA-L, ECL, GSL-I, PNA or DBA: minimal changes
  Changes in glycans detected by Jacalin, PHA-E and LCA: dramatic changes
[3]
  Cellular OGA levels: reduced cellular OGA
[4]
  Global O-GlcNAc levels in four cell lines: reduce global O-GlcNAc levels in all four lines examined

— patent publication US20170166558A1, “O-GLCNAC TRANSFERASE (OGT) INHIBITORS AND USES THEREOF” (President and Fellows of Harvard College, priority 2014, published 2017)
